Measurements: patent publication US20250002955A1, “Method for Promoting Production of Exopolysaccharide by Bifidobacterium Bacteria” (TOHOKU UNIVERSITY, priority 2021, published 2025)

Assays:
Assay type in all cases: cell-based
[1] = system: Bifidobacterium breve AT-APC-FucE1 strain; assay: Confirmation of EPS production through culturing of AT-APC-FucE1 strain (transmission electron microscope); details: 1% Fuc mMRS culture medium vs 1% Glu mMRS culture medium, anaerobic, 37° C., 12 hours, transmission electron microscope (FIGS. 4 and 5)
Description: An mMRS liquid culture medium comprising 0.5 wt. % and an mMRS liquid culture medium comprising 1 wt. % of D-glucose (hereinafter, the respective mMRS liquid culture mediums are also referred to as a “0.5% Glu mMRS culture medium” and a “1% Glu mMRS culture medium”, respectively) (composition: 10 g/L of beef extract, 5 g/L of yeast extract, 2 g/L of ammonium citrate, 5 g/L of sodium acetate, 0.1 g/L of magnesium sulfate, 0.05 g/L of manganese sulfate, 2 g/L of dipotassium hydrogen phosphate, 0.5 g/L of L-cysteine hydrochloride, and 0.5% or 1% D-glucose) were prepared. The 0.5% Glu mMRS culture medium was inoculated with the AT-APC-FucE1 strain, and pre-culturing was implemented anaerobically at 37° C. for 24 hours.
The 1% Fuc mMRS culture medium was then inoculated with 100 μL of the pre-cultured culture solution, and anaerobic culturing was carried out at 37° C. The AT-APC-FucE1 strain was collected from the culture solution that had been cultured for 12 hours, after which the bacterial cells were washed with phosphate-buffered saline (PBS), and subsequently, the bacterial cells were immobilized on a membrane, and the EPS production by the bacterial cells was confirmed using a transmission electron microscope. […]

[2] = system: Bifidobacterium breve AT-APC-FucE1 strain; assay: Influence of presence or absence of L-fucose in culture medium on EPS production amount by AT-APC-FucE1 strain; details: 0.5% sugar in mMRS culture medium, anaerobic, 37° C., 96 hours
Protocol: The 0.5% Glu mMRS culture medium was inoculated with the AT-APC-FucE1 strain, and pre-culturing was implemented anaerobically at 37° C. for 24 hours. An amount of 100 μL of the pre-cultured culture solution was inoculated into each of a 0.5% Fuc mMRS culture medium (mMRS liquid culture medium comprising 0.5 wt. % of L-fucose) and a 0.5% Glu mMRS culture medium, and then cultured anaerobically at 37° C. for 96 hours.
The amount of crude EPS extracted from the supernatant of each culture solution was approximately the same (13.33 mg/1000 mL). However, when the amount of protein in these crude EPS samples was measured, and the amount of protein was subtracted from the amount of crude EPS, the amount of EPS produced in the culture medium that used D-glucose (that is, the 0.5% Glu mMRS culture medium) was 9.34 mg/1000 mL, whereas the amount of EPS produced in the culture medium that used L-fucose (that is, the 0.5% Fuc mMRS culture medium) was 13.14 mg/1000 mL.

[3] = system: Bifidobacterium animalis subsp. lactis JCM10602 strain; assay: Induction of EPS production by L-fucose in JCM10602 strain; details: anaerobic, 37° C.; for amount of EPS produced, extracted with ethanol / amount of EPS produced, extracted with trichloracetic acid: 0.5% sugar in mMRS culture medium, 96 hours, culture supernatant
Protocol: In order to confirm whether the production of EPS is induced by L-fucose in other bacteria of the genus Bifidobacterium, the following test was carried out using the JCM10602 strain and the JCM1192 strain.
Note that the JCM10602 strain is Bifidobacterium animalis subsp. lactis (i.e., Bifidobacterium lactis), which is frequently used as a probiotic and is known to produce EPS at a high level, and the JCM1192 strain is a standard strain of Bifidobacterium breve, which is the same species as AT-APC-FucE1.
The JCM10602 strain was anaerobically cultured in a 0.5% Fuc mMRS culture medium and in a 0.5% Glu mMRS culture medium at 37° C. for 96 hours by the method described in Test 3 above.
When the EPS extracted from the culture supernatant was assayed, the amount of EPS produced in the culture medium using D-glucose (that is, the 0.5% Glu mMRS culture medium) was 132.97 mg/1000 mL (when extracted with trichloracetic acid) and 4.74 mg/1000 mL (when extracted with ethanol), whereas the amount of EPS produced in the culture medium using L-fucose (that is, the 0.5% Fuc mMRS culture medium) was 166.2 mg/1000 mL (when extracted with trichloracetic acid) and 13.33 mg/1000 mL (when extracted with ethanol).

[4] = system: Bifidobacterium breve JCM1192 strain; assay: Induction of EPS production by L-fucose in JCM1192 strain; details: JCM1192, standard strain of Bifidobacterium breve
Protocol: In order to confirm whether the production of EPS is induced by L-fucose in other bacteria of the genus Bifidobacterium, the following test was carried out using the JCM10602 strain and the JCM1192 strain. Note that the JCM10602 strain is Bifidobacterium animalis subsp. lactis (i.e., Bifidobacterium lactis), which is frequently used as a probiotic and is known to produce EPS at a high level, and the JCM1192 strain is a standard strain of Bifidobacterium breve, which is the same species as AT-APC-FucE1.

Structure (SMILES) | EPS production by the bacterial cells [1] | amount of EPS produced (amount of protein subtracted from amount of crude EPS) [2] | amount of crude EPS extracted from the supernatant of culture solution [2] | production of EPS (electron microscope observation) ([3]; 0.5% Fuc mMRS vs 0.5% Glu mMRS culture medium, 96 hours (FIG. 7)) | amount of EPS produced, extracted with ethanol [3] | amount of EPS produced, extracted with trichloracetic acid [3] | induction of EPS production [4]
C[C@H](O)[C@@H](O)[C@@H](O)[C@H](O)C=O [L-fucose] | remarkably promoted | 13.14 mg/1000 mL | ~13.33 mg/1000 mL | improved | 13.33 mg/1000 mL | 166.2 mg/1000 mL | significant production induction by L-fucose was not confirmed
O=C[C@H](O)[C@@H](O)[C@H](O)[C@H](O)CO [D-glucose, reference compound] |  | 9.34 mg/1000 mL | ~13.33 mg/1000 mL |  | 4.74 mg/1000 mL | 132.97 mg/1000 mL | 
